Measured values reported in US4778797A, “Organo-silicon compounds, process for the manufacture of same, and anti-tumor agent comprising the compound” (Sanwa Kagaku Kenkyusho Co., Ltd., priority 1984, dated 1988).
In brackets after ≈: the same amount, converted by molar mass. Like-named read-outs stand apart in the source and are kept apart here.

Legend:
CrJ/CDI female mice = assay: Acute toxicity; assay type: in vivo; details: oral gavage
Method: (§1) Each of testing compounds suspended in 0.1% P-1570 was orally and forcedly dosed through a gastric probe to CrJ/CDI female mice (21 to 22 g, age of about 5 weeks). An identification number was given to each mouse, and a weighing and observation on general behavior were carried out just before the dosage and each day after the same. Each of died mice was subjected without delay to an autopsy to check the same, more particularly in detail on enterona. All of living mice were killed at 21st day from the dosage to carry out an autopsy for checking the same, more particularly on entrails.
(§2) An LD50 was calculated in accordance with the Leed and Munch's method.
(§3) A similar test was carried out on each controls of 1-[2-[(2-trimethylsilylethyl)thio]ethylcarbamoyl]-5-fluorouracil and 1-hexylcarbamoyl-5-fluorouracil (HCFU) which is one of exemplary anti-tumor agents.

Acute toxicity = assay type: in vivo, CrJ/CDI female mice; details: mouse, in vivo; oral gavage, suspended in 0.1% P-1570, female mice, 21 days observation
Method: as §1, §2, §3

KB cells = assay: Suppression of KB cell proliferation in vitro; assay type: cell-based; details: Homo sapiens, 72 h, 3 days exposure, Trypan Blue dye-exclusion, read-out: KB IC50 (50% inhibition density to tumor cell proliferation)
Method: In a cultivation device (5% CO2, 37° C.), KB cells (1×10^4 cells) were cultivated for 24 hours in a culture tube with 1 ml of Eagle culture medium added 10% ox serum, the used culture medium was thrown away to change with a fresh culture medium (0.9 ml), and then 0.1 ml of a similar culture fluid containing each testing compound prepared by the process as described in the Examples was added to cultivate the same for further 3 days. Thereafter, living cells were dyed with Tripan Blue and measured same through a dye-exclusion method.
A control was treated in a manner similar to the above, except that a culture fluid containing no compound of the invention was added.
50% inhibition density (IC50) to the tumor cell proliferation was decided through the tests between the testing group and the control group to obtain results as shown in following Table 1.

B-16 melanoma = assay: Anti-tumor action to B-16 melanoma; assay type: in vivo, BDF1 female mice; details: Mus musculus, B16, 504 h, oral, tumor weight at 21st day, read-out: B-16 melanoma Inhibition ratio
Excerpt: B-16 melanoma (1×10^5 cells) was transplanted under skin of BDF1 female mice (age of about 5 weeks), and each of testing compounds was orally dosed at 1st, 5th and 9th day after the transplantation. At 21st day after the transplantation, the mice were killed to measure a weight of the cancerous tumor and to finally determine an inhibition ratio.

Colon-38 carcinoma = assay: Anti-tumor action to Colon-38 carcinoma; assay type: in vivo, BDF1 mice; details: Mus musculus, 672 h, oral, tumor weight at 28th day, read-out: colon-38 Inhibition ratio
Method: 0.02 ml of 10(W/V)% cell suspension prepared from a solid cancer cell (Colon-38 carcinoma) were transplanted under skin of BDF1 mice (20-21 g, age of about 5 weeks), and each of testing compounds was orally dosed to the mice at 1st, 5th and 9th day after the transplantation. A major and minor axes of the cancerous tumor were measured at 11th, 14th, 21st, 25th and 28th day after the transplantation to calcurate volume of the tumor in accordance with the following.
At 28th day from the transplantation, the mice were killed and each of the cancerous tumors was extracted to measure its weight and to determine an inhibitation ratio in comparison with a non-treated control group.

MM-46 adenocarcinoma = assay: Anti-tumor action to MM-46 adenocarcinoma; assay type: in vivo, C3H/He female mice; details: oral, 250 mg/kg/day × 3 (1st, 5th, 9th day); days to death, testing vs control group
Excerpt: MM-46 adenocarcinoma (1×10^6 cells) was transplanted under skin of C3H/He female mice (age of about 5 weeks), and each of testing compounds was orally dosed at 1st, 5th and 9th day after the transplantation to check days of life on the mice.
T: days to death on testing group, and
C: days to death on control group.

Lewis lung carcinoma = assay: Anti-tumor action to Lewis lung carcinoma (primary tumor weight and metastasis); assay type: in vivo, BDF1 mice; details: Mus musculus, po, 504 h
Excerpt: Lewis lung carcinoma (1×10^5 cells) was transplanted under skin of right ear of BDF1 mice (age of about 5 weeks), and each of testing compounds was orally dosed 10 times from 1st to 10th day after the transplantation. At 21st day after the transplantation, the mice were killed to measure a weight of the primarly tumor and to extract a lung. The lung was fixed in a conventional manner to count a number of metastasis on cancerous cells with use of a stereomicroscope having a low magnification. An anti-tumor action of each compound was expressed with an inhibition in weight of the primarly tumor and an inhibition of the metastasis.

L-1210 leukemia = assay: Anti-tumor action to L-1210 leukemia; assay type: in vivo, BDF1 female mice; details: Mus musculus, L1210, oral; for ILS at 250 mg/kg/day: 250 mg/kg/day × 3 (1st, 5th, 9th day); for ILS at 500 mg/kg/day: 500 mg/kg/day × 3 (1st, 5th, 9th day)
Method: L-1210 leukemia cell (1×10^5 cells) was transplanted in a abdominal cavity of BDF1 female mice (20-21 g, age of about 5 weeks), and each of testing compounds was orally dosed in 250 mg/kg or 500 mg/kg at 1st, 5th and 9th day after the transplantation to check days of life of the mice. [formula]

## C[Si](C)(C)CCSCCNC(=O)n1cc(F)c(=O)[nH]c1=O [1-[2-[(2-trimethylsilylethyl)thio]ethylcarbamoyl]-5-fluorouracil, reference compound]
CrJ/CDI female mice; female mice
  autopsy findings (ulcer and laxative feces): an ulcer and laxative feces
  spasm (general behavior): a spasm was observed in some mice
Acute toxicity
  LD50 at 504 h: 1100 mg/kg

## C[Si](C)(C)CCCSCCNC(=O)n1cc(F)c(=O)[nH]c1=O [Example 1, 5-Fluoro-3,4-dihydro-2,4-dioxo-N-[2-[[3-(trimethylsilyl)propyl]thio]ethyl]-1(2H)-pyrimidinecarboxamide]
KB cells
  IC50: 20 mg/L (≈ 57.6 µM)
B-16 melanoma; 125 mg/kg/day × 3
  inhibition in vivo at 125 mg/kg/day: 25.8%
B-16 melanoma; 250 mg/kg/day × 3
  inhibition in vivo at 250 mg/kg/day: 73.8%
Colon-38 carcinoma; 278 mg/kg/day × 3
  inhibition in vivo at 278 mg/kg/day: 95.2%
MM-46 adenocarcinoma
  MM-46 adenocarcinoma T/C × 100: 181%
Acute toxicity
  LD50 at 504 h: 1580 mg/kg
Lewis lung carcinoma; 13 mg/kg/day × 10 + Amputation, 21st day, read-out: Inhibition Ratio weight LLC
  inhibition in vivo at 13 mg/kg/day: 33.2%
Lewis lung carcinoma; 13 mg/kg/day × 10 + Amputation, lung, 21st day, printed in parentheses, read-out: Inhibition Ratio metastasis
  inhibition in vivo at 13 mg/kg/day: 26.6%
Lewis lung carcinoma; 13 mg/kg/day × 10, 21st day, read-out: Inhibition Ratio weight LLC
  inhibition in vivo at 13 mg/kg/day: 0%
Lewis lung carcinoma; 13 mg/kg/day × 10, lung, 21st day, read-out: Inhibition Ratio metastasis
  inhibition in vivo at 13 mg/kg/day: 50.9%
Lewis lung carcinoma; 26 mg/kg/day × 10 + Amputation, 21st day, read-out: Inhibition Ratio weight LLC
  inhibition in vivo at 26 mg/kg/day: 59.8%
Lewis lung carcinoma; 26 mg/kg/day × 10 + Amputation, lung, 21st day, printed in parentheses, read-out: Inhibition Ratio metastasis
  inhibition in vivo at 26 mg/kg/day: > 63%
Lewis lung carcinoma; 26 mg/kg/day × 10, 21st day, read-out: Inhibition Ratio weight LLC
  inhibition in vivo at 26 mg/kg/day: 51.1%
Lewis lung carcinoma; 26 mg/kg/day × 10, lung, 21st day, read-out: Inhibition Ratio metastasis
  inhibition in vivo at 26 mg/kg/day: 79.2%
Lewis lung carcinoma; 52 mg/kg/day × 10, 21st day, read-out: Inhibition Ratio weight LLC
  inhibition in vivo at 52 mg/kg/day: 31.1%
Lewis lung carcinoma; 52 mg/kg/day × 10, lung, 21st day, read-out: Inhibition Ratio metastasis
  inhibition in vivo at 52 mg/kg/day: 95.7%
L-1210 leukemia; read-out: L-1210 ILS
  ILS at 250 mg/kg/day: 28%
  ILS at 500 mg/kg/day: 98%
L-1210 leukemia; read-out: L-1210 Judgement
  ILS at 250 mg/kg/day: 25 to 50%
  ILS at 500 mg/kg/day: 50 to 100%

## C[Si](C)(CCSCCNC(=O)n1cc(F)c(=O)[nH]c1=O)c1ccccc1 [Example 3, N-[2-[[2-(Dimethylphenylsilyl)ethyl]thio]ethyl]-5-fluoro-3,4-dihydro-2,4-dioxo-1(2H)-pyrimidinecarboxamide]
KB cells
  IC50: 12 mg/L (≈ 30.3 µM)
B-16 melanoma; 300 mg/kg/day × 3
  inhibition in vivo at 300 mg/kg/day: 62%
Colon-38 carcinoma; 315 mg/kg/day × 3
  inhibition in vivo at 315 mg/kg/day: 82.1%
MM-46 adenocarcinoma
  MM-46 adenocarcinoma T/C × 100: 205%
Acute toxicity
  LD50 at 504 h: 1500 mg/kg
Lewis lung carcinoma; 29.5 mg/kg/day × 10, 21st day, read-out: Inhibition Ratio weight LLC
  inhibition in vivo at 29.5 mg/kg/day: 20.7%
Lewis lung carcinoma; 29.5 mg/kg/day × 10, lung, 21st day, read-out: Inhibition Ratio metastasis
  inhibition in vivo at 29.5 mg/kg/day: 57.5%
Lewis lung carcinoma; 59 mg/kg/day × 10, 21st day, read-out: Inhibition Ratio weight LLC
  inhibition in vivo at 59 mg/kg/day: 0%
Lewis lung carcinoma; 59 mg/kg/day × 10, lung, 21st day, read-out: Inhibition Ratio metastasis
  inhibition in vivo at 59 mg/kg/day: 95.1%
L-1210 leukemia; read-out: L-1210 ILS
  ILS at 250 mg/kg/day: 38%
  ILS at 500 mg/kg/day: 82%
L-1210 leukemia; read-out: L-1210 Judgement
  ILS at 250 mg/kg/day: 25 to 50%
  ILS at 500 mg/kg/day: 50 to 100%

## CCCCCCNC(=O)n1cc(F)c(=O)[nH]c1=O [HCFU, 1-hexylcarbamoyl-5-fluorouracil, reference compound]
CrJ/CDI female mice; suspended in 0.1% P-1570, female mice, 21 days observation
  LD50: 1250 mg/kg
